Data as given in the NIST ThermoML archive (doi:10.1016/j.jct.2017.01.006).
± gives the expanded uncertainty stated by the source.

Test: Molar enthalpy of transition or fusion
Conditions: Crystal; DSC

Nc1ccc(N)c([N+](=O)[O-])c1 [2-nitro-1,4-benzenediamine]
Molar enthalpy of transition or fusion: 3.92 ± 0.21 kcal/mol
